According to US4575498A, “Method for restoring depleted purine nucleotide pools” (priority 1983, dated 1986):

Tests used:
Type in all cases: in vivo, mongrel dogs
skeletal muscle = assay: AICAriboside infusion: nucleotide, nucleoside and base content of skeletal (gastrocnemius) muscle biopsies; set-up: AMP / ADP / ATP / TAN / IMP / Hyp (hypoxanthine): unit not given beside the values; settings: for TAN: total adenine nucleotide
[1] = AICAriboside plasma concentration during infusion; settings: dog, after 42 min of infusion, 100 mM at 1.9 ml/min into left atrium
Method: Animal Preparation--Seven adult mongrel dogs were anesthetized intramuscularly with 40 mg of morphine sulfate and intravenously with 80 mg/kg of chloralose, an endotraceal tube was inserted, and ventilation was maintained with an Emerson volume-cycled respirator and 100% oxygen. The heart was exposed through a left lateral thoracotomy, polyvinyl chloride catheters (3-mm outer diameter) were inserted into the left atrium and into the aorta through the right femoral artery, and a Statham TTQ electromagnetic flow meter probe was positioned around the ascending aorta. The aortic pressure catheter was connected to a Statham P23Db transducer (Statham Instruments, Inc., Oxnard, CA) with the zero reference at the midchest level. Aortic flow was measured with a Howell Instruments Series 1000 Flowmeter, and stroke volume and cardiac output were calculated from the aortic flow measurement. All hemodynamic data were monitored continuously throughout the course of the study. […]
After hemodynamic parameters had stabilized, regional myocardial blood flow was measured by injecting radioactively labled microspheres. […] Venous and arterial blood samples were also obtained at 42 min. of infusion, and regional myocardial blood flow was measured at 10 and 39 min. of AICAriboside infusion. […]

[2] = Serum urate concentrations; settings: dog, in vivo; of 8 mmol infused, during 42 min; minimal estimate from serum urate increase and total body water; read-out: infused AICAriboside metabolized to purine nucleotides and subsequently catabolized
Method: (§1) Animal Preparation--Seven adult mongrel dogs were anesthetized intramuscularly with 40 mg of morphine sulfate and intravenously with 80 mg/kg of chloralose, an endotraceal tube was inserted, and ventilation was maintained with an Emerson volume-cycled respirator and 100% oxygen. The heart was exposed through a left lateral thoracotomy, polyvinyl chloride catheters (3-mm outer diameter) were inserted into the left atrium and into the aorta through the right femoral artery, and a Statham TTQ electromagnetic flow meter probe was positioned around the ascending aorta. The aortic pressure catheter was connected to a Statham P23Db transducer (Statham Instruments, Inc., Oxnard, CA) with the zero reference at the midchest level. Aortic flow was measured with a Howell Instruments Series 1000 Flowmeter, and stroke volume and cardiac output were calculated from the aortic flow measurement. All hemodynamic data were monitored continuously throughout the course of the study. In 5 of the animals, the skin of the left dorsal hindlimb was opened and the gastrocnemius muscle was identified for subsequent tissue sampling.
(§2) After hemodynamic parameters had stabilized, regional myocardial blood flow was measured by injecting radioactively labled microspheres. Tissue samples were obtained from the left ventricle and from the left gastrocnemius muscle. A venous blood sample was also obtained. AICAriboside (100 mM) was then infused into the left atrium at 1.9 ml/min. Repeat tissue samples were taken from the left ventricle at 15, 30 and 42 min. of infusion, and tissue samples were taken from the gastrocnemius muscle at 30 min. of infusion. Venous and arterial blood samples were also obtained at 42 min. of infusion, and regional myocardial blood flow was measured at 10 and 39 min. of AICAriboside infusion. AICAriboside infusion was terminated after 42 min., and tissue samples were taken from the left ventricle at 10, 20, 30 and 60 min. postinfusion and from the left gastrocnemius muscle at 2, 22 and 60 min. postinfusion. Venous blood samples were obtained at 10, 30 and 60 min. after AICAriboside infusion. In 4 of the 7 dogs, 400 mM formate was infused intravenously at the rate of 1.9 ml/min. for 42 min. prior to and during AICAriboside infusion. These same animals also received 6 mg of folinic acid as an intravenous bolus 30 min. prior to and 15 min. after initiating AICAriboside infusion.
(§3) Other Methods--Serum urate was determined by the enzymatic spectrophotometric method as previously described in Liddle et al., J. Lab. Clin. Med., 54, 909-913 (1959).

serum urate = assay: Serum urate concentrations; settings: for Serum urate concentration: P < 0.05 vs control
Method: as §1, §2, §3

[3] = 2 min postinfusion, P < 0.05 vs control
[4] = 30 min of AICAriboside infusion
[5] = 30 min of AICAriboside infusion, P < 0.05 vs control

SMILES: NC(=O)c1ncn([C@@H]2O[C@H](CO)[C@@H](O)[C@H]2O)c1N [AICAriboside, 5-amino-4-imidazolecarboxamide riboside]
- AMP (skeletal muscle; 2 min postinfusion): 0.016 ± 0.002
- Hyp (hypoxanthine) (skeletal muscle; 2 min postinfusion): 0.022 ± 0.009
- Ino (inosine) (skeletal muscle; 2 min postinfusion): 0.024 ± 0.008
- ADP (skeletal muscle; [3]): 0.65 ± 0.06
- ATP (skeletal muscle; [3]): 4.68 ± 0.45
- IMP (skeletal muscle; [3]): 0.046 ± 0.012
- ADP (skeletal muscle; 22 min postinfusion): 0.59 ± 0.03
- AMP (skeletal muscle; 22 min postinfusion): 0.014 ± 0.003
- ATP (skeletal muscle; 22 min postinfusion): 4.34 ± 0.21
- Hyp (hypoxanthine) (skeletal muscle; 22 min postinfusion): 0.021 ± 0.008
- Ino (inosine) (skeletal muscle; 22 min postinfusion): 0.024 ± 0.011
- IMP (skeletal muscle; 22 min postinfusion, P < 0.05 vs control): 0.045 ± 0.016
- ADP (skeletal muscle; [4]): 0.53 ± 0.04
- AMP (skeletal muscle; [4]): 0.016 ± 0.009
- ATP (skeletal muscle; [4]): 3.92 ± 0.23
- Hyp (hypoxanthine) (skeletal muscle; [5]): 0.024 ± 0.007
- IMP (skeletal muscle; [5]): 0.050 ± 0.012
- Ino (inosine) (skeletal muscle; [5]): 0.035 ± 0.009
- ADP (skeletal muscle; 60 min postinfusion): 0.56 ± 0.05
- AMP (skeletal muscle; 60 min postinfusion): 0.018 ± 0.007
- ATP (skeletal muscle; 60 min postinfusion): 3.60 ± 0.41
- Hyp (hypoxanthine) (skeletal muscle; 60 min postinfusion): 0.041 ± 0.017
- Ino (inosine) (skeletal muscle; 60 min postinfusion): 0.055 ± 0.031
- IMP (skeletal muscle; 60 min postinfusion, P < 0.05 vs control): 0.043 ± 0.015
- increase in IMP content (skeletal muscle; AICAriboside infusion): 6-7 fold
- guanine nucleotide content (skeletal muscle; not statistically significant): tended to increase
- content of inosine and hypoxanthine (skeletal muscle; throughout infusion and up to 60 min thereafter): consistently elevated
- content of NAD^+ (skeletal muscle; throughout infusion, did not vary): 0.32 ± 0.04 µmol/g
- TAN (skeletal muscle; [3]): 5.34 ± 0.51
- TAN (skeletal muscle; 22 min postinfusion): 4.94 ± 0.23
- TAN (skeletal muscle; [4]): 4.47 ± 0.27
- TAN (skeletal muscle; 60 min postinfusion): 4.18 ± 0.44
- concentration at 0.7 h [1]: 336 ± 26 µM
- metabolised at 0.7 h [2]: ≥ 25%
- Serum urate concentration (serum urate; 10 min postinfusion): 3.5 ± 0.5 mg/dL
- Serum urate concentration (serum urate; 30 min postinfusion): 2.9 ± 0.2 mg/dL
- Serum urate concentration (serum urate; 42 min of AICAriboside infusion): 3.5 ± 0.4 mg/dL
- Serum urate concentration (serum urate; 60 min postinfusion): 2.40 ± 0.4 mg/dL
- increase in mean serum urate concentration (serum urate; following infusion of 8 mmol of AICAriboside): 3.7 fold
